Tests used:
[1] = system: Aggrecan; test: Immunohistochemistry of Aggrecan in repaired tissue; type: in vivo, New Zealand white rabbits
Procedure: (§1) Histological examination steps were as follows: in an environment of 4° C., the specimens used for histological analysis were fixed in 10% neutral formalin (Sig-ma-Aldrich, USA) for 24 hours, and decalcified with a 10% ethylenediaminetetraacetic acid (EDTA) buffer solution (Sigma-Aldrich, USA) for 28 days. The sample was embedded in paraffin wax (Sigma-Aldrich, USA), cut into 4 μm thick sagittal sections, and subjected to staining with hemotoxylin and cosin, Masson trichrome and Alcian Blue (Sigma Aldrich, USA). The sections were detected immunohistochemically for the contents of the type II collagen and Aggrecan. […] These sections were scored blindly by 3 experienced pathologists with an improved O'Driscoll scoring system (MODS).
(§2) The steps of histological morphology analysis were as follows: in all the sample sections, the original defect region was a 3*3 mm square. […] The percentages of areas of the new subchondral bone, the cartilage, the collagen fiber and the glycosaminoglycan (GAG) in the total area of the defect region was detected with image analysis software (image pro plus 6.0). Their respective contents were expressed as integrated optical density (IOD) of the type II collagen and Aggrecan measured by Image pro plus 6.0. […]

[2] = system: collagen fibers; test: Masson trichrome staining, collagen fiber area in defect region; type: in vivo, New Zealand white rabbits; conditions: 2 and 4 weeks; group 3 versus groups 2 and 1; P<0.05
Procedure: as §1, §2

[3] = system: rabbit temporomandibular joint condylar osteochondral defect (3 mm*3 mm); test: Macroscopic (ICRS) evaluation of repair of rabbit condylar osteochondral defect; type: in vivo, New Zealand white rabbits; conditions: overall conclusion, 1 to 4 weeks
Excerpt: 54 adult male New Zealand white rabbits (Zhejiang Chinese Medical University, IACUC-20180625-04) were randomized into 3 groups, with 18 rabbits in each group. The 54 rabbits were operated at right condyle, while the left condyle remained intact.
They were divided into 3 groups, of which group 1 was a control group without any treatment in the defect region; group 2 was a Gel-MA group implanted with Gel-MA hydrogel in the defect region; and group 3 was a Hst1/Gel-MA group implanted with HST1 functionalized Gel-MA in the defect region (provided in Example 1). […]
(§3) At 1, 2 and 4 weeks after operation, 6 animals in each group were randomly selected for euthanasia. The right temporomandibular joint and surrounding tissues thereof were taken out, and the gross specimens were evaluated by macroscopic scoring, and statistically analyzed.
The macroscopic scoring evaluation of the gross specimens adopted a macroscopic scoring system of the International Cartilage Repair Society (ICRS), and the gross appearance of the defect site was photographed and subjected to blind evaluation by 3 independent graders. The scoring system evaluated the cartilage repair in the defect region from four aspects: the degree of repair, the integration of a boundary area, a macroscopic appearance and the overall repair evaluation. […]

[4] = system: glycosaminoglycan (GAG); test: Alcian Blue staining, glycosaminoglycan (GAG) area in defect region; type: in vivo, New Zealand white rabbits; conditions: 2 and 4 weeks; group 3 versus groups 2 and 1; P<0.05
Procedure: as §1, §2

[5] = system: type II collagen; test: Immunohistochemistry of type II collagen in repaired tissue; type: in vivo, New Zealand white rabbits
Procedure: as §1, §2

[6] = system: rabbit temporomandibular joint condylar osteochondral defect (3 mm*3 mm); test: Histological evaluation (H&E, histomorphometry, MODS score) of repaired osteochondral defect; type: in vivo, New Zealand white rabbits; conditions: group 3
Procedure: as §3, with “In this example, 3 groups of rabbits provided in Example 2 were used, and at” for “At”, “analyzed for tissue morphology” for “evaluated by macroscopic scoring,”
Histological examination steps were as follows: in an environment of 4° C., the specimens used for histological analysis were fixed in 10% neutral formalin (Sig-ma-Aldrich, USA) for 24 hours, and decalcified with a 10% ethylenediaminetetraacetic acid (EDTA) buffer solution (Sigma-Aldrich, USA) for 28 days. The sample was embedded in paraffin wax (Sigma-Aldrich, USA), cut into 4 μm thick sagittal sections, and subjected to staining with hemotoxylin and cosin, Masson trichrome and Alcian Blue (Sigma Aldrich, USA). The sections were detected immunohistochemically for the contents of the type II collagen and Aggrecan. All the sections were observed and photographed by utilizing an optical microscope (CX51; Olympus) and a digital charge coupled device camera (TrueChrome Metrics; Tucsen Photonics). These sections were scored blindly by 3 experienced pathologists with an improved O'Driscoll scoring system (MODS).
The steps of histological morphology analysis were as follows: in all the sample sections, the original defect region was a 3*3 mm square. The top of the square was flush with the cartilage surfaces on both sides. The percentages of areas of the new subchondral bone, the cartilage, the collagen fiber and the glycosaminoglycan (GAG) in the total area of the defect region was detected with image analysis software (image pro plus 6.0). Their respective contents were expressed as integrated optical density (IOD) of the type II collagen and Aggrecan measured by Image pro plus 6.0.
At 4 weeks after operation, the tissues were retrieved for histological treatment and sectioning. According to the implants in the defect region, they were divided into a group 1 as the control group (A in FIG. 3, A1-A2), a group 2 as the Gel-MA group (B in FIG. 3, B1-B2) and a group 3 as the Hst1/Gel-MA group (C in FIG. 3, C1-C2). The dotted square area in FIG. 3 was the original defect region (3 mm*3 mm). A-C scale=500 μm. […]
The quantitative analysis of areas of new cartilage and subchondral bones and the MODS score results of repairing osteochondral defects at 1, 2 and 4 weeks after operation were shown in FIG. 4. In FIG. 4, A was the quantitative analysis of the area of the new cartilage, B was the quantitative analysis of the area of the subchondral bone, and C, D and E were the MODS score results of repairing osteochondral defects at 1, 2 and 4 weeks after operation, respectively. […]

[7] = system: defect region of a critical size in rabbit condyle; test: Effect of Hst1 dose in Gel-MA on cartilage repair (H&E histology); type: in vivo; conditions: 2 weeks
Excerpt: In order to determine the optimal concentration of Hst1 for promoting osteochondral repair, Gel-M and 3 different doses of Hst1 at (A, A1) 50, (B, B1) 500, and (C, C1) 1,000 (μg)/sample were implanted in the defect region of a critical size in rabbit condyle, and the tissues were taken out at 2 weeks after operation, subjected to histological treatment and sectioned to explore the cartilage repair effects of the 3 different concentrations of Hst1.
The 3 different concentrations of Hst1 were set as follows: group A: 50 μg of Hst1+21.1 μl of a Gel-MA prepolymer solution; group B: 500 μg of Hst1+21.1 μl of a Gel-MA prepolymer solution; and group C: 1,000 μg of Hst1+21.1 μl of a Gel-MA prepolymer solution (the model volume of condylar defect was 21.1 μl/sample).
The optical photomicrographs of H&E stained tissue sections of rabbit condyle for comparison were shown in FIG. 8, wherein the dotted square area was the original defect region (3 mm*3 mm), the A-C scale was 500 μm; and the A1-C1 scale=50 μm. […] Therefore, 500 μg of Hst1/sample (500 μg of Hst1+21.1 μl of Gel-MA) was selected as the preferred concentration.

[8] = 4 weeks after operation, group 3
[9] = 4 weeks, group 3, quantitative analysis (IOD)

Histatin-1 polypeptide (DSHEKRHHGYRRKFHEKHHSHREFPFYGDYGSNYLYDN; linear Hst1)
expression of Aggrecan in the new cartilage tissue [1, 8]: close to those in the normal cartilage tissue | expression of Aggrecan compared with the groups 2 and 1 [1, 9]: more significant | area percentages of the collagen fibers in the new cartilage and the subchondral bone in the total area of the defect region [2]: significantly higher than those in the groups 2 and 1 | effect on promoting the repair of cartilage injury (macroscopic) [3]: very significant effect on promoting the repair of cartilage injury | area percentages of glycosaminoglycan (GAG) in the new cartilage and the subchondral bone in the total area of the defect region [4]: significantly higher than those in the groups 2 and 1 | expression of the type II collagen in the new cartilage tissue [5, 8]: close to those in the normal cartilage tissue | expression of the type II collagen compared with the groups 2 and 1 [5, 9]: more significant | histological observation of defect region ([6]; 1 week after operation): a new tissue was observed in the pores of the undegraded scaffold | histological observation of defect region ([6]; 2 weeks after operation): new cartilage and bone tissues gradually grew, infiltrated and replaced the scaffold | histological observation of defect region ([6]; 4 weeks after operation): the new cartilage proliferated and migrated to the center site of the defect | new blood vessels at junction between subchondral bone and functionalized hydrogel ([6]; 4 weeks after operation): formation of new blood vessels could be detected | histological repair of defect region ([7]; group A: 50 μg of Hst1+21.1 μl Gel-MA prepolymer solution): no new tissue was generated, and only a small amount of cell infiltration was detected | histological repair of defect region ([7]; group B: 500 μg of Hst1+21.1 μl Gel-MA prepolymer solution): several new cartilage islands could be obviously observed | histological repair of defect region ([7]; group C: 1,000 μg of Hst1+21.1 μl Gel-MA prepolymer solution): a large number of new subchondral bones were generated, but almost no new cartilage tissue was detected

— patent publication US20250135071A1, “USE OF POLYPEPTIDE IN PROMOTION OF CARTILAGE REGENERATION OR REPAIR” (HANGZHOU HUIBO SCIENCE AND TECHNOLOGY CO., LTD, priority 2021, published 2025)
